Patent publication US20060194828A1, “Vitamin comprising pyroloquinoline quinone and use thereof” (priority 2003, published 2006)
“Also recorded” adds a separate entry of the source.

Assays:
PQQ-deficient mice = conditions: skin fragility, skeletal abnormality, decreased immune response, poor reproduction and growth; cited from earlier work
AASDH activity (mU26) = experiment: PQQ-deficient feedstuff given to mice, levels of amino acids and AAA in blood; type: in vivo, mouse; conditions: PQQ-deficient vs PQQ-added (100 ng PQQ·2Na per gram) feedstuff, ICR female mice, 20 days
Text: The mice were fed with feedstuff, to which PQQ had not been added (−PQQ) or had been added (+PQQ) and which had chemically been limited, for 20 days. Thereafter, the peripheral blood was collected therefrom, and amino acids contained in the blood were quantified using an amino acid analyzer. The amount of lysine (A) was indicated with a percentage to the total amount of amino acids in blood. The amount of 2-aminoadipic acid was normalized with lysine (B) or glycine (C). The horizontal line represents the mean value of mice in each group.
In order to clarify the role of PQQ influenced on AASDH activity, feedstuff containing no PQQ was given to mice, and such influence was examined. Chemically defined feedstuff (to which no PQQ was added or 100 ng PQQ·2Na was added per gram of feedstuff) was produced in accordance with the publication (Killgore, J. et al. (1989) Science 245, 850-852; Steinberg, F. M. et al. (1994) J. Nutr. 124, 744-753). The thus produced feedstuff was given to virgin female mice (ICR, 4-week-old) for 20 days. The levels of various amino acids and AAA in blood were measured by the above-described method. […] In particular, when normalization was carried out with the amount of lysine, AAA was reduced most clearly (FIG. 6B).

O=C(O)c1cc(C(=O)O)c2c(n1)C(=O)C(=O)c1cc(C(=O)O)[nH]c1-2 [PQQ, pyrroloquinoline quinone]
amount of PQQ added to feedstuff that recovered the abnormalities of PQQ-deficient mice (PQQ-deficient mice): ≥ 800 ng per gram of feedstuff | level of AAA (2-aminoadipic acid) in blood (AASDH activity (mU26); normalized with lysine or glycine): reduced more significantly; also recorded: significantly decreased in PQQ-deficient mice | amount of lysine in blood (AASDH activity (mU26); percentage to total amino acids in blood): not significantly different; also recorded: not changed
